In BigSolDB 2.1:

O=c1c2ccccc2nc2n1CCc1c-2[nH]c2ccccc12
solubility (mole fraction)
Details | 283.15 K | 288.15 K | 293.15 K | 298.15 K | 303.15 K | 308.15 K | 313.15 K | 318.15 K | 323.15 K
in acetone | 0.00069 | 0.00079 | 0.000929 | 0.00106 | 0.00122 | 0.00139 | 0.00158 | 0.0018 | 0.00205
in ethanol | 0.000132 | 0.00016 | 0.000191 | 0.000229 | 0.000271 | 0.00032 | 0.000375 | 0.00044 | 0.000509
in isopropanol | 7.46e-05 | 9.8e-05 | 0.000124 | 0.00016 | 0.000201 | 0.000257 | 0.000318 | 0.000396 | 0.000488
in methanol | 6.1e-05 | 7.33e-05 | 8.79e-05 | 0.000105 | 0.000125 | 0.000148 | 0.000172 | 0.000201 | 0.000234
in water | 1.45e-09 | 2.02e-09 | 2.84e-09 | 3.97e-09 | 5.49e-09 | 7.6e-09 | 1.04e-08 | 1.38e-08 | 1.85e-08
